Data as given in US10874743B2, “IRAK degraders and uses thereof” (Kymera Therapeutics, Inc., priority 2017, dated 2020).
Values belong to the compound of their own block, whether it stands above or below them.

Molecular target: T1, IRAK4 (Homo sapiens, UniProt Q9NWZ3)
T1 sequence (Q9NWZ3 1-460): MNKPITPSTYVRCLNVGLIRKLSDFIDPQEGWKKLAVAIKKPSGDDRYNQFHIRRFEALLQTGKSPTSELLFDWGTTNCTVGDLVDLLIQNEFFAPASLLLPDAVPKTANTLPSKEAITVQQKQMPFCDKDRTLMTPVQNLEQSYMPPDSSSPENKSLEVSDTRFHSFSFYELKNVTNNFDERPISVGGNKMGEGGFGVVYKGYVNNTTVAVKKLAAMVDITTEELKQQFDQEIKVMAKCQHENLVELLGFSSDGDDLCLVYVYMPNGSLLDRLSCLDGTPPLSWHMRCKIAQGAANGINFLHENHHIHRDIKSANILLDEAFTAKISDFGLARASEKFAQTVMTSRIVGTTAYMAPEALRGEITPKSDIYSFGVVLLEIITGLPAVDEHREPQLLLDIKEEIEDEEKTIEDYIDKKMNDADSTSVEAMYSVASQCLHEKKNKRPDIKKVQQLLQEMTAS
Experiment: OCI-LY-10 degradation assay (western blot, % IRAK4 degraded after 4 hours)
Assay type: cell-based
Parameters: endogenous in cells; host or cells: OCI-LY10
Settings: OCI-LY10 cells; for OCI-LY10 % IRAK4 Degradation (0.01 uM) / OCI-LY10 % IRAK4 Degradation (0.1 uM) / OCI-LY10 % IRAK4 Degradation (1 uM): 4 hours; for OCI-LY10 % IRAK4 Degradation (0.01 uM): 0.01 uM compound; for OCI-LY10 % IRAK4 Degradation (0.1 uM): 0.1 uM compound; for OCI-LY10 % IRAK4 Degradation (1 uM): 1 uM compound; for OCI-LY10 % IRAK4 Degradation: IRAK4 degraded after 4 hours, western blot
Method: Compounds were reconstituted in DMSO to make stock solutions at concentration of 60 mM. THP-1 and OCI-LY10 cells were maintained in RPMI-1640 medium containing 10% FBS, 0.5 μM 2-ME or 20% FBS, 55 μM 2-ME, and 1% L-Glutamine respectively.
Cells were seeded into 6-well plates with 5e6 cells per well. 200 μL of diluted compounds were added to cells to the final concentration of 0.003-10 μM. After 4 or 24 hour-incubation at 37° C., cells were collected into 2 mL Eppendorf tubes and centrifuged at 1,000 rpm for 5 min. The cell pellets were washed with 1×DPBS once and resuspended in 60 μL lysis buffer. The cells were lysed on ice for 10 min, then centrifuged at 14,000 rpm for 10 min at 4° C. and the supernatants were collected for western blots. For THP-1 cells, the lysis buffer contained 40 mM pH 7.4 HEPES, 140 mM NaCl, 2.5 mM EDTA, 1% NP-40, 0.1% SDS, and protease inhibitor cocktail (Roche, Cat. No. 05892791001). For OCI-LY10 cells, RIPAbuffer (Thermo Fisher, 89900) with Halt Protease and Phosphatase Inhibitor Cocktail (Thermo Fisher, 78446) was applied.
The protein concentration of cell lysates was quantified with Pierce™ BCA Protein Assay Kit (Pierce, 23227). Albumin standards at different concentrations were prepared, involving 2,000 ug/mL, 1,500 ug/mL, 1,000 ug/mL, 750 ug/mL, 500 ug/mL, 250 ug/mL, 125 ug/mL, and 25 ug/mL. BCA working reagents were prepared by mixing BCA reagent A with reagent B in 50:1 ratio. 200 μL of the BCA working reagents were added to 25 μL of BCA standard or cell lysates in microplate, and mixed thoroughly on a plate shaker for 30 seconds. After incubation at 37° C. for 30 min, the absorbance of samples at 562 nm were measured with EnVision Plate Reader.
Protein lysates were prepared in NuPAGE™ LDS sample buffer and NuPAGE™ sample reducing agent, and incubated at 95° C. for 5 min. For western blots, 20-25 μg of total proteins were resolved in 4-12% Bis-Tris gels (Introgen, WG1403A) or 10% Bis-Tris Midi gels (Invitrogen, WG1202BOX) running with 1×MOPS SDS running buffer (Invitrogen, NP0001) or 1×MES SDS running buffer (Invitrogen, NP0002). The proteins were transferred to low fluorescence PVDF membranes using the Trans-Blot Turbo Transfer System. Membranes were then blocked in Odyssey blocking buffer at RT for 1 h followed by primary incubation at 4° C. overnight. The primary antibodies were IRAK1 rabbit monoclonal antibody (CST, #4504S, 1:500), IRAK3 rabbit polyclonal antibody (CST, #4369, 1:500), IRAK4 rabbit polyclonal antibody (CST, #4363S, 1:1,000), MyD88 rabbit monoclonal antibody (Abcam, Ab133739, 1:2,000), j3-actin mouse monoclonal antibody (Sigma, A5441, 10,000), and Gapdh mouse monoclonal antibody (Millipore, MAB374, 1:5,000). Membranes were washed three times with 1×TBST, and then incubated with IR Dye 800 CW Goat anti-rabbit (Licor, #926-32211) and IR Dye 700 CW Goat anti-mouse (Licor, #926-68070) secondary antibodies in 1:10,000 dilution at RT for 1 h. The western blot images were obtained using Odyssey Imaging System.
OCI-LY-10 results at 4 hours. The letter codes indicate the percentage of IRAK4 degraded after 4 hours: A (>50% degradation), B (>20-50% degradation) and C (<20% degradation)
OCI-LY-10 results at 4 hours. The letter codes for % IRAK4 degradation indicate the percentage of IRAK4 degraded after 4 hours across three different concentrations: A (>50% degradation), B (>20-50% degradation) and C (<20% degradation).

OCI-LY10 % IRAK4 Degradation (0.01 uM): C (<20% degradation) | OCI-LY10 % IRAK4 Degradation (0.1 uM): C (<20% degradation) | OCI-LY10 % IRAK4 Degradation (1 uM): C (<20% degradation)
Structure (SMILES): NC(=O)c1nn(-c2ccc(CNCCCc3ccc4c(c3)C(=O)N(C3CCC(=O)NC3=O)C4=O)cc2)cc1NC(=O)c1coc(-c2ccncc2)n1 (stereo not shown) [I-372]

OCI-LY10 % IRAK4 Degradation: B (>20-50% degradation)
Structure (SMILES): NC(=O)c1nn(C2CCC(C(=O)NCCOCCOCCNc3cccc4c3C(=O)N(C3CCC(=O)NC3=O)C4=O)CC2)cc1NC(=O)c1coc(-c2ccnc(NCC(F)(F)F)c2)n1 (stereo not shown) [I-139]

OCI-LY10 % IRAK4 Degradation: C (<20% degradation)
Structure (SMILES): CC(OCCOCCOCCOCCNc1cccc2c1C(=O)N(C1CCC(=O)NC1=O)C2=O)C(F)CNC(=O)c1cnc(-n2ncc3cc(C#N)cnc32)cc1NC1CC1 (stereo not shown) [I-71]

OCI-LY10 % IRAK4 Degradation: C (<20% degradation)
Structure (SMILES): CC(C)(OCCOCCOCCOCCOCCNc1cccc2c1C(=O)N(C1CCC(=O)NC1=O)C2=O)C(F)CNC(=O)c1cnc(Nc2ccc3ncsc3c2)cc1NC1CC1 (stereo not shown) [I-68]

OCI-LY10 % IRAK4 Degradation: B (>20-50% degradation)
Structure (SMILES): CN(CCOCCOCCNc1cccc2c1C(=O)N(C1CCC(=O)NC1=O)C2=O)C(=O)[C@H]1C[C@H](NC(=O)c2cnc(Nc3ccc4cnccc4n3)cc2NC2CC2)C1 (stereo partly shown) [I-44, 6-((1,6-naphthyridin-2-yl)amino)-4-(cyclopropylamino)-N-((1r,3r)-3-((2-(2-(2-((2-(2,6-dioxopiperidin-3-yl)-1,3-dioxoisoindolin-4-yl)amino)ethoxy)ethoxy)ethyl)(methyl)carbamoyl)cyclobutyl)nicotinamide]

OCI-LY10 % IRAK4 Degradation (0.01 uM): B (>20-50% degradation) | OCI-LY10 % IRAK4 Degradation (0.1 uM): A (>50% degradation) | OCI-LY10 % IRAK4 Degradation (1 uM): A (>50% degradation)
Structure (SMILES): O=C1CCC(N2C(=O)c3cccc(OCCc4cnnn4CCOCCOCCNCc4ccc(-n5cc(NC(=O)c6coc(-c7ccnc(NCC8CC8)c7)n6)c(C(F)F)n5)cc4)c3C2=O)C(=O)N1 (stereo not shown) [I-346]

OCI-LY10 % IRAK4 Degradation (0.01 uM): C (<20% degradation) | OCI-LY10 % IRAK4 Degradation (0.1 uM): B (>20-50% degradation) | OCI-LY10 % IRAK4 Degradation (1 uM): B (>20-50% degradation)
Structure (SMILES): O=C1CCC(N2C(=O)c3cccc(NC4CN(CCOCCOCCNCc5ccc(-n6cc(NC(=O)c7coc(-c8ccnc(NCC9CC9)c8)n7)c(C(F)F)n6)cc5)C4)c3C2=O)C(=O)N1 (stereo not shown) [I-338]

OCI-LY10 % IRAK4 Degradation: C (<20% degradation)
Structure (SMILES): CC(OCCOCCOCCNc1cccc2c1C(=O)N(C1CCC(=O)NC1=O)C2=O)C(F)CNC(=O)c1cnc(Nc2ccc3cnccc3n2)cc1NC1CC1 (stereo not shown) [I-62]

OCI-LY10 % IRAK4 Degradation: C (<20% degradation)
Structure (SMILES): N#Cc1cnc2c(cnn2-c2cc(NC3CC3)c(C(=O)NCC(F)COCCOCCOCCOCCOCCNc3cccc4c3C(=O)N(C3CCC(=O)NC3=O)C4=O)cn2)c1 (stereo not shown) [I-57]

OCI-LY10 % IRAK4 Degradation (0.01 uM): C (<20% degradation) | OCI-LY10 % IRAK4 Degradation (0.1 uM): B (>20-50% degradation) | OCI-LY10 % IRAK4 Degradation (1 uM): A (>50% degradation)
Structure (SMILES): O=C1CCC(N2C(=O)c3cccc(N4CCN(CCOCCOCCOCCNC(=O)c5ccc(-n6cc(NC(=O)c7coc(-c8ccnc(NCC9CC9)c8)n7)c(C(F)F)n6)cc5)CC4)c3C2=O)C(=O)N1 (stereo not shown) [I-275]

OCI-LY10 % IRAK4 Degradation (0.01 uM): C (<20% degradation) | OCI-LY10 % IRAK4 Degradation (0.1 uM): A (>50% degradation) | OCI-LY10 % IRAK4 Degradation (1 uM): A (>50% degradation)
Structure (SMILES): O=C1CCC(N2C(=O)c3cccc(NCCOCCN4CCO[C@H](CNC(=O)c5ccc(-n6cc(NC(=O)c7coc(-c8ccnc(NCC9CC9)c8)n7)c(C(F)F)n6)cc5)C4)c3C2=O)C(=O)N1 (stereo partly shown) [I-250]

Second part, the compound before the results:

Structure (SMILES): NC(=O)c1nn(CCOCCOCCOCCNc2cccc3c2C(=O)N(C2CCC(=O)NC2=O)C3=O)cc1NC(=O)c1coc(-c2ccnc(NCC3CC3)c2)n1 (stereo not shown) [I-239]
OCI-LY10 % IRAK4 Degradation (0.01 uM): C (<20% degradation) | OCI-LY10 % IRAK4 Degradation (0.1 uM): C (<20% degradation) | OCI-LY10 % IRAK4 Degradation (1 uM): C (<20% degradation)

Structure (SMILES): N#Cc1cnc2c(cnn2-c2cc(NC3CC3)c(C(=O)NCC(F)COCCOCCOCCNc3cccc4c3C(=O)N(C3CCC(=O)NC3=O)C4=O)cn2)c1 (stereo not shown) [I-46, 6-(5-Cyanopyrazolo[3,4-b]pyridin-1-yl)-4-(cyclopropylamino)-N-[3-[2-[2-[2-[[2-(2,6-dioxo-3-piperidyl)-1,3-dioxo-isoindolin-4-yl]amino]ethoxy]ethoxy]ethoxy]-2-fluoro-propyl]pyridine-3-carboxamide]
OCI-LY10 % IRAK4 Degradation: C (<20% degradation)

Structure (SMILES): NC(=O)c1nn(-c2ccc(C(=O)NCCOCCCc3cccc4c3C(=O)N(C3CCC(=O)NC3=O)C4=O)cc2)cc1NC(=O)c1coc(-c2ccnc(NCC(F)(F)F)c2)n1 (stereo not shown) [I-234]
OCI-LY10 % IRAK4 Degradation (0.01 uM): C (<20% degradation) | OCI-LY10 % IRAK4 Degradation (0.1 uM): B (>20-50% degradation) | OCI-LY10 % IRAK4 Degradation (1 uM): B (>20-50% degradation)

Structure (SMILES): CC[C@@H]1[C@H](F)C(=O)N[C@@H]1COc1nccc2cc(C(=O)NCCOCCOCCNc3cccc4c3C(=O)N(C3CCC(=O)NC3=O)C4=O)c(OC)cc12 (stereo partly shown) [I-87]
OCI-LY10 % IRAK4 Degradation: C (<20% degradation)

Structure (SMILES): O=C1CCC(N2C(=O)c3ccc(OCc4cn(CCOCCOCCNCc5ccc(-n6cc(NC(=O)c7coc(-c8ccnc(NCC9CC9)c8)n7)c(C(F)F)n6)cc5)nn4)cc3C2=O)C(=O)N1 (stereo not shown) [I-345]
OCI-LY10 % IRAK4 Degradation (0.01 uM): C (<20% degradation) | OCI-LY10 % IRAK4 Degradation (0.1 uM): A (>50% degradation) | OCI-LY10 % IRAK4 Degradation (1 uM): A (>50% degradation)

Structure (SMILES): NC(=O)c1nn(-c2ccc(CNCCOCCOCCCc3cccc4c3CN(C3CCC(=O)NC3=O)C4=O)cc2)cc1NC(=O)c1coc(-c2ccnc(NCC3CC3)c2)n1 (stereo not shown) [I-324]
OCI-LY10 % IRAK4 Degradation (0.01 uM): B (>20-50% degradation) | OCI-LY10 % IRAK4 Degradation (0.1 uM): A (>50% degradation) | OCI-LY10 % IRAK4 Degradation (1 uM): B (>20-50% degradation)

Structure (SMILES): O=C1CCC(N2C(=O)c3cccc(NCCOCCOCC(F)CNC(=O)c4cnc(Nc5ccc6cnccc6n5)cc4NC4CC4)c3C2=O)C(=O)N1 (stereo not shown) [I-61]
OCI-LY10 % IRAK4 Degradation: C (<20% degradation)

Structure (SMILES): O=C1CCC(N2C(=O)c3cccc(NCc4cn(CCOCCOCCNCc5ccc(-n6cc(NC(=O)c7coc(-c8ccnc(NCC9CC9)c8)n7)c(C(F)F)n6)cc5)nn4)c3C2=O)C(=O)N1 (stereo not shown) [I-340]
OCI-LY10 % IRAK4 Degradation (0.01 uM): C (<20% degradation) | OCI-LY10 % IRAK4 Degradation (0.1 uM): A (>50% degradation) | OCI-LY10 % IRAK4 Degradation (1 uM): A (>50% degradation)

Structure (SMILES): NC(=O)c1nn(-c2ccc(C(=O)NCCOCCOCCOCCOCCCc3ccc4c(c3)C(=O)N(C3CCC(=O)NC3=O)C4=O)cc2)cc1NC(=O)c1coc(-c2ccnc(NCC(F)(F)F)c2)n1 (stereo not shown) [I-148]
OCI-LY10 % IRAK4 Degradation: B (>20-50% degradation)

Structure (SMILES): O=C1CCC(N2C(=O)c3ccc(N4CCN(CCOCCOCCNCc5ccc(-n6cc(NC(=O)c7coc(-c8ccnc(NCC9CC9)c8)n7)c(C(F)F)n6)cc5)CC4)cc3C2=O)C(=O)N1 (stereo not shown) [I-337]
OCI-LY10 % IRAK4 Degradation (0.01 uM): C (<20% degradation) | OCI-LY10 % IRAK4 Degradation (0.1 uM): A (>50% degradation) | OCI-LY10 % IRAK4 Degradation (1 uM): A (>50% degradation)
